Data published in patent US8246966B2, “Trypanosome microsome system and uses thereof” (priority 2006, dated 2012).
“Also recorded” adds a separate entry of the source. Read-outs that look alike come from different tables or passages of the source.

Assays:
[1] = test system: HeLa cells; assay: HeLa cell viability, propidium iodide exclusion assay; type: cell-based, human
Description: HeLa cells, treated with DMSO, MAL3-101, MAL3-51, CJ-21,058 or equisetin, were subject to a propidium iodide viability assay and analyzed by flow cytometry.
HeLa cell line was maintained in RPMI-1640 supplemented with 10% bovine serum, 100 U/ml penicillin/streptomycin, and 2 mM L-glutamine at 37° C. in 5% CO2.
HeLa cell viability assays. Propidium iodide exclusion assay (reviewed in Steff et al., 2001, Cytometry; 45(4):237-43 and Wigg et al., 2003, Anal Biochem; 317(1):19-25) was used to determine HeLa cell viability after drug treatment. Cells were plated at 1×10^4 cells per well (96 well plate) with or without addition of test compounds for the stated time periods, as described for FIGS. 1-4. […] Adherent cells were rinsed with phosphate buffered saline (PBS), trypsinized (37° C. for 5 minutes), pelleted (2,000 g, 2 minutes), resuspended in PBS (500 μl) containing propidium iodide (1 μg/ml), DAPI [4′-6-Diamidino-2-phenylindole] (5 μg/ml) and analyzed by flow cytometry on a Dakocytomation CyAn without gating. Single fluorophore controls were acquired prior to the collection of the experimental data.

[2] = test system: T. brucei microsomes (TbRM); assay: Post-translational import of VSG—11786 into T. brucei microsomes, proteinase K protection (Example 2); type: biochemical, Trypanosoma brucei; settings: for effect on protein import into TbRM (in words): VSG—11786 substrate
Description: FIGS. 2A and 2B show the effect of protein translocation inhibitors on TbRM. FIG. 2A presents the protocol used for import of VSG—117500. In FIG. 2B, SG—117500 mRNA was translated in rabbit reticulocyte lysate with 1.5 equivalents T. brucei cytosol (pretreated with MAL3-101 (0.3 μM), MAL3-51 (1 μM), CJ21,058 (20 μM) or equisetin (50 μM)) for 60 minutes. The reaction mixtures were treated with cycloheximide (50 μg/ml, final concentration) and incubated with TbRM (one equivalent). The mixture was incubated for 60 minutes at 37° C. and digested with proteinase K digestion (30 μg/ml, final concentration) for 60 minutes on ice. Proteins were resolved by SDS-PAGE and detected by phosphorimaging. In lanes 1 and 2, TbRM were pretreated with DMSO. Lane 1 is untreated VSG—117500 with TbRM; lane 2 is VSG—117500 incubated with TbRM and treated with proteinase K. In lanes 3 and 4 TbRM were pretreated with MAL3-101. Lane 3 is VSG—117500 incubated with TbRM; lane 4 is VSG—117500 incubated with TbRM and then treated with proteinase K. In lanes 5 and 6 TbRM pretreated with MAL3-51. Lane 5 is VSG—117500 incubated with TbRM; lane 6 is VSG—117500 incubated with TbRM and then treated with proteinase K. In lanes 7 and 8 TbRM were pretreated with CJ-21,058). Lane 7 is VSG—117500 incubated with TbRM; lane 8 is VSG—117500 incubated with ThRM and then treated with proteinase K. In lanes 9 and 10 TbRM were pretreated with equisetin). Lane 9 is VSG—117500 incubated with TbRM; lane 10 is VSG—117500 incubated with TbRM and then treated with proteinase K.
Protein import into TbRM. Two micrograms (μg) of RNA encoding a truncated substrate (e.g., VSG—11786) was translated in […] of a reaction mixture containing 20 μl rabbit reticulocyte lysate, 60 μM amino acid mixture (-Met, -Cys), and 2.4 μCi [^35S]Promix. The reaction was incubated at 37° C. for 15 minutes. Cycloheximide (50 μg/ml, final concentration) was used to stop further translation, and the mixture was divided into two portions. T. brucei microsomes (ThRM) (1 equivalent) was added to one aliquot, and to the other portion an equal volume of RM buffer was added. The reactions were incubated at 37° C. for 45 minutes for protein import into TbRM to take place post-translationally.
Each reaction mixture was divided into three (each 10 μl) and treated with one of the following on ice for one hour: (I) RM buffer; (ii) 30 μg/ml protease K; (iii) nonidet P-40 (NP-40) (2%, final concentration) followed by protease K (30 μg/ml, final concentration). PMSF (20 mM final concentration) was added to stop protease K digestion. Samples were precipitated with an equal volume of cold (NH4)2SO4 sulphate (saturated) and resolved by sodium dodecyl sulfate-polyacrylamide gel electrophoresis (SDS-PAGE) (4% total acrylamide, 3% cross linker in tricene-HCl system) (Fekkes et al., 1998, Mol Microbiol; 29(5):1179-90). The gels were dried, and radioactive polypeptides detected with a phosphorimager (Molecular Imager FX, (BioRad). Data bands were quantitated with QuantityOne software (BioRad), and graphs were plotted with DeltaGraph (Red Rock software).
A small molecule inhibitor of Hsp70-Hsp40 interaction blocks protein translocation into TbRM. Post-translational ER protein translocation in Saccharomyces cerevisiae and E. coli requires cytosolic chaperones. In the yeast S. cerevisiae, for example, Ssa1p (Hsp70) and co-chaperone Ydj1p (Hsp40) (Becker et al., 1996, Mol Cell Biol; 16(8):4378-86; Ngosuwan et al., 2003, J Biol Chem; 278(9):7034-42; and McClellan et al., 1998, Mol Biol Cell; 9(12): 3533-45) as well as Kar2p/BiP stimulate post-translational protein import (Lyman and Schekman, 1995, J Cell Biol; 131(5):1163-71; Panzner et al., 1995, Cell; 81(4):561-70; and Holkeri et al., 1998, J Cell Sci; 111:749-757). […]

Structure (SMILES): C/C=C/[C@@H]1C=C[C@@H]2C[C@H](C)CC[C@H]2[C@]1(C)/C(O)=C1/C(=O)[C@H](CO)N(C)C1=O [equisetin]
- effect on human HeLa cells ([1]; concentrations that killed one hundred percent T. brucei (IC100)): little effect; also recorded: did not have discernible effects
- HeLa cell viability ([1]; equisetin 26 μM): neither CJ-21,058 (20 μM) nor equisetin (26 μM) decreased viability of HeLa cells
- effect on protein import into TbRM (in words) [2]: inhibited import
- inhibition of translocation of VSG—11786 into TbRM ([2]; equisetin 25 μM): 95%

Structure (SMILES): CCCCCCN(C(=O)CCCCCN1C(=O)NC(c2ccc(-c3ccccc3)cc2)C(C(=O)OCc2ccccc2)=C1C)C(C(=O)NCCCC)c1ccc(OCC(=O)OC)c(C(=O)OC)c1 (stereo not drawn) [MAL3-101]
- VSG—11786 translocated into TbRM (protection from proteinase K digestion) ([2]; MAL3-101 present (0.3 μM in FIG. 2B legend), DMSO control 80%): 13%
- effect on protein import into TbRM (in words) [2]: blocked import

Structure (SMILES): C/C=C/C1C(C)=CC2CC(C)CCC2C1(C)/C(O)=C1/C(=O)C(CO)N(C)C1=O (stereo not drawn) [CJ-21,058]
- effect on human HeLa cells [1]: little effect
- inhibition of translocation of VSG—11786 into TbRM ([2]; CJ-21,058 20 μM): 95%
- effect on protein import into TbRM (in words) [2]: inhibited import
